# Assay results from patent US20230159445A1, “STAT INHIBITORY COMPOUNDS AND COMPOSITIONS” (JANPIX LIMITED, priority 2020, published 2023).
# What was measured:
# MV4-11 cells = test: MV4-11 Cell Cytotoxicity Assay (CellTiter-Blue, 72 h); type: cell-based, human; details: Homo sapiens, MV4-11; MV-4-11 cells
# Method in brief: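 Viability read-out: CellTiter-Blue, 1 h, fluorescence 560/590 nm. Preceded by 72 h exposure (37° C, 5% CO2) to twofold dilution series from 50 μM, triplicate, 0.5% DMSO vehicle, applied 24 h after plating.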
# [1] = system: normal human fibroblast (NHF) cells; test: NHF Cell Cytotoxicity Assay (CellTiter-Blue, 72 h), off-target effects; type: cell-based; details: Homo sapiens, Fibroblast; pooled NHF cells
# Method in brief: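 Normal human fibroblasts (1×10^4/well, 10% FBS medium) were treated after 24 h with inhibitor at 0.097656-50 μM for 72 h at 37° C. Viability was read by CellTiter-Blue fluorescence (560/590 nm), normalized to DMSO control, and IC50 obtained from a variable-slope log(inhibitor)-response fit of four replicates.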
# glutathione (GSH) = test: Reactivity Profiling with Glutathione (GSH), half-life by HPLC; details: 5 mM glutathione (GSH) in IMDM with 10% FBS
# Protocol: 3.5 μL of 5 mM stocking solution of the inhibitors in DMSO was added to 697.5 μL of Iscove's Modified Dulbecco's Medium (IMDM) supplemented with 10% FBS and antibiotic antimycotic solution, with 5 mM glutathione to afford a final concentration of 25 μM inhibitor with 0.5% DMSO. The solution was then immediately placed in the sample tray at 25° C. […] For each inhibitor, its peak is integrated at different time points and compared to the time zero injection in order to obtain a percentage remaining. Half-life is calculated according to a first order reaction kinetic taking into account those time points for which remaining percentage of inhibitor is above 40%, using the formula: t½=Ln(2)/k, where k is the slope of the linear plot of Ln[Inhibitor] vs time, according to the formula: Ln[A]=Ln[A]0−kt, where [A] is the value resulting from the integration at each time point, [A]0 the value at time zero, and t the time. For each inhibitor, both replicates are averaged and the resulting t½ reported.
half-life at 25 μM (glutathione (GSH)),Structure (SMILES),IC50 (MV4-11 cells),IC50 [1]
9.23 to 1670 h,"CC(C)(C)c1cc(CN(C(=O)CN(Cc2c(F)cccc2Cl)S(=O)(=O)c2c(F)c(F)c(F)c(F)c2F)c2ccc(C(=O)O)cc2OC2CC2)cc(C2CC2)c1 [Compound 1238, 4-(N-(3-(tert-butyl)-5-cyclopropylbenzyl)-2-(N-(2-chloro-6-fluorobenzyl)-(2,3,4,5,6-pentafluorophenyl)sulfon-amido)acetamido)-3-cyclopropoxybenzoic acid]",0.01 to 316 nM,10000 to 20000 nM
4.12 to 9.23 h,"O=C(O)c1ccc(N(Cc2cc(C3CC3)cc(C3CC3)c2)C(=O)CN(Cc2ccc(F)cc2Cl)S(=O)(=O)c2c(F)c(F)c(F)c(F)c2F)c(N2CCOCC2)c1 [Compound 1241, 4-(2-(N-(2-chloro-4-fluorobenzyl)-(2,3,4,5,6-pentafluorophenyl)sulfon-amido)-N-(3,5-dicyclopropylbenzyl)acetamido)-3-morpholinobenzoic acid]",0.01 to 316 nM,1 to 10000 nM
0.00167 to 2.37 h,"O=C(O)c1ccc(N(Cc2cc(C3CC3)cc(C3CC3)c2)C(=O)CN(CCc2ccc(F)cc2Cl)S(=O)(=O)c2c(F)c(F)c(F)c(F)c2F)c(OC2CC2)c1 [Compound 1242, 4-(2-(N-(2-chloro-4-fluorophenethyl)-(2,3,4,5,6-pentafluorophenyl)sulfon-amido)-N-(3,5-dicyclopropylbenzyl)acetamido)-3-cyclopropoxybenzoic acid]",316 to 1000 nM,10000 to 20000 nM
2.37 to 4.12 h,"COCCOc1cc(C(=O)O)ccc1N(Cc1cc(C2CC2)cc(C(C)(C)C)c1)C(=O)CN(Cc1ccc(F)cc1Cl)S(=O)(=O)c1c(F)c(F)c(F)c(F)c1F [Compound 1246, 4-(N-(3-(tert-butyl)-5-cyclopropylbenzyl)-2-(N-(2-chloro-4-fluorobenzyl)-(2,3,4,5,6-pentafluorophenyl)sulfon-amido)acetamido)-3-(2-methoxyethoxy)benzoic acid]",0.01 to 316 nM,10000 to 20000 nM
0.00167 to 2.37 h,"Cc1cc(C(=O)O)ccc1N(Cc1cc(C2CC2)cc(C(C)(C)C)c1)C(=O)CN(Cc1cnccc1C(F)(F)F)S(=O)(=O)c1c(F)c(F)c(F)c(F)c1F [Compound 1251, 4-(N-(3-(tert-butyl)-5-cyclopropylbenzyl)-2-(N-((4-(trifluoromethyl)pyridin-3-yl)methyl)-(2,3,4,5,6-pentafluoro-phenyl)sulfonamido)acetamido)-3-methylbenzoic acid]",0.01 to 316 nM,1 to 10000 nM
2.37 to 4.12 h,"CCOc1cc(C(=O)O)ccc1N(Cc1cc(C2CC2)cc(C2CC2)c1)C(=O)CN(Cc1ccc(F)cc1Cl)S(=O)(=O)c1c(F)c(F)c(F)c(F)c1F [Compound 1252, 4-(2-(N-(2-chloro-4-fluorobenzyl)-(2,3,4,5,6-pentafluorophenyl)sulfon-amido)-N-(3,5-dicyclopropylbenzyl)acetamido)-3-ethoxybenzoic acid]",0.01 to 316 nM,1 to 10000 nM
0.00167 to 2.37 h,"C#CCOc1cc(C(=O)O)ccc1N(Cc1cc(C2CC2)cc(C2CC2)c1)C(=O)CN(Cc1ccc(F)cc1Cl)S(=O)(=O)c1c(F)c(F)c(F)c(F)c1F [Compound 1258, 4-(2-(N-(2-chloro-4-fluorobenzyl)-(2,3,4,5,6-pentafluorophenyl)sulfon-amido)-N-(3,5-dicyclopropylbenzyl)acetamido)-3-(prop-2-yn-1-yloxy)benzoic acid]",0.01 to 316 nM,10000 to 20000 nM

Structure (SMILES),half-life at 25 μM (glutathione (GSH)),IC50 (MV4-11 cells),IC50 [1]
"CCCCOc1cc(C(=O)O)ccc1N(Cc1cc(C2CC2)cc(C2CC2)c1)C(=O)CN(Cc1ccc(F)cc1Cl)S(=O)(=O)c1c(F)c(F)c(F)c(F)c1F [Compound 1254, 3-butoxy-4-(2-(N-(2-chloro-4-fluorobenzyl)-(2,3,4,5,6-pentafluorophenyl)sulfon-amido)-N-(3,5-dicyclopropylbenzyl)acetamido)benzoic acid]",9.23 to 1670 h,0.01 to 316 nM,20000 to 30000 nM
